The structures appear in SMILES notation. “And” between values parts separate entries of the source, which are not always exact repeats. Equal values may be shown once. Toxic doses and inconclusive results are not listed.

The subject of the assay is L1210 leukemia ip in BDF1 mice, survival T/C. In words: NCI In Vivo Anticancer Drug Screen. Data for tumor model L1210 Leukemia (intraperitoneal) in B6D2F1 (BDF1) mice. Conditions: endpoint: mean survival time, higher = longer survival. An outline of the steps:
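Mice bearing the transplanted tumor received compound or vehicle. Survival of the treated group was divided by that of the vehicle-treated control group to give the ratio.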

[1] abbreviates: dose: 100.0 mg/kg/injection, schedule: Q04DX003 (ip), vehicle: saline with Tween-80.
Where [2] appears, read: dose: 200.0 mg/kg/injection, schedule: Q04DX003 (ip), vehicle: saline with Tween-80.
The mark [3] stands for this setting: dose: 400.0 mg/kg/injection, schedule: Q04DX003 (ip), vehicle: saline with Tween-80.
The mark [4] stands for this setting: dose: 100.0 mg/kg/injection, schedule: Q01DX001 (ip), vehicle: carboxymethylcellulose (CMC).
The mark [5] stands for this setting: dose: 200.0 mg/kg/injection, schedule: Q01DX001 (ip), vehicle: carboxymethylcellulose (CMC).
Where [6] appears, read: dose: 400.0 mg/kg/injection, schedule: Q01DX001 (ip), vehicle: carboxymethylcellulose (CMC).
Where [7] appears, read: dose: 50.0 mg/kg/injection, schedule: Q01DX009 (ip), vehicle: saline with Tween-80.
[8] abbreviates: dose: 100.0 mg/kg/injection, schedule: Q01DX001 (ip), vehicle: saline.
The mark [9] stands for this setting: dose: 100.0 mg/kg/injection, schedule: Q01DX009 (ip), vehicle: saline with Tween-80.
Where [10] appears, read: dose: 200.0 mg/kg/injection, schedule: Q01DX001 (ip), vehicle: saline.
Setting [11] is: dose: 200.0 mg/kg/injection, schedule: Q01DX009 (ip), vehicle: saline with Tween-80.
The mark [12] stands for this setting: dose: 100.0 mg/kg/injection, schedule: Q04DX003 (ip), vehicle: Klucel (hydroxypropylcellulose) (HPC).
[13] abbreviates: dose: 200.0 mg/kg/injection, schedule: Q04DX003 (ip), vehicle: Klucel (hydroxypropylcellulose) (HPC).
Where [14] appears, read: dose: 400.0 mg/kg/injection, schedule: Q04DX003 (ip), vehicle: Klucel (hydroxypropylcellulose) (HPC).

`Cc1cc(Cl)c(Cl)cc1NC(=O)Nc1cccc(C(F)(F)F)c1`: the T/C (dose: 100.0 mg/kg/injection, schedule: Q01DX009 (ip), vehicle: carboxymethylcellulose (CMC)) was 93 % of control; the T/C (dose: 200.0 mg/kg/injection, schedule: Q01DX009 (ip), vehicle: carboxymethylcellulose (CMC)) is 91 % of control; the T/C (dose: 400.0 mg/kg/injection, schedule: Q01DX009 (ip), vehicle: carboxymethylcellulose (CMC)) was 102 % of control.

On to `Cc1ccc(S(=O)(=O)NC(=O)NCCC(C)C)cc1`, for which the T/C under setting [1] is 102 % of control, the T/C under setting [2] was 100 % of control and the T/C under setting [3] was 96 % of control.

Take `O=C(Nc1ccc(C2=NCCN2)cc1)c1cccc(C(=O)Nc2ccc(C3=NCCN3)cc2)c1Cl`: the T/C is 105 % of control (dose: 4.5 mg/kg/injection, schedule: Q01DX Z (ip), vehicle: carboxymethylcellulose (CMC)); 117 % of control (dose: 9.0 mg/kg/injection, schedule: Q01DX Z (ip), vehicle: carboxymethylcellulose (CMC)); 155 % of control (dose: 18.0 mg/kg/injection, schedule: Q01DX Z (ip), vehicle: carboxymethylcellulose (CMC)); 211 % of control (dose: 25.0 mg/kg/injection, schedule: Q01DX Z (ip), vehicle: carboxymethylcellulose (CMC)); 184 % of control (dose: 37.0 mg/kg/injection, schedule: Q01DX Z (ip), vehicle: carboxymethylcellulose (CMC)); 109 % of control (dose: 62.0 mg/kg/injection, schedule: Q01DX Z (oral), vehicle: carboxymethylcellulose (CMC)). The T/C by setting is: (dose: 125.0 mg/kg/injection, schedule: Q01DX Z (oral), vehicle: carboxymethylcellulose (CMC)) 118 % of control; (dose: 250.0 mg/kg/injection, schedule: Q01DX Z (oral), vehicle: carboxymethylcellulose (CMC)) 118 % of control; (dose: 500.0 mg/kg/injection, schedule: Q01DX Z (oral), vehicle: carboxymethylcellulose (CMC)) 98 % of control.

On to `c1ccc(-c2ccccc2SSc2ccccc2-c2ccccc2)cc1`, for which the T/C under setting [4] is 96 % of control, the T/C under setting [5] was 105 % of control and the T/C under setting [6] is 91 % of control.

Take `Cc1c(Cl)cccc1NC(=O)N(C)Cc1ccccc1`: the T/C runs as follows: under setting [7], 109 % of control and 120 % of control; (dose: 100.0 mg/kg/injection, schedule: Q04DX002 (ip), vehicle: saline with Tween-80) 104 % of control and 110 % of control; under setting [1], 97 % of control; (dose: 200.0 mg/kg/injection, schedule: Q04DX002 (ip), vehicle: saline with Tween-80) 100 % of control and 104 % of control; under setting [2], 106 % of control; (dose: 400.0 mg/kg/injection, schedule: Q04DX002 (ip), vehicle: saline with Tween-80) 100 % of control and 103 % of control. The T/C under setting [3] was 101 % of control.

Turning to `COc1cc(/C=C/[N+](=O)[O-])c([N+](=O)[O-])cc1OC`, the T/C reads like this: under setting [7], 90 % of control; under setting [8], 106 % of control; under setting [9], 87 % of control; under setting [10], 101 % of control.

As to `CCOC(=O)C(OC(=O)c1ccccc1)(OC(=O)c1ccccc1)C(=O)OCC`, the T/C was 101 % of control under setting [8] and 93 % of control under setting [10].

In the case of `O=S1(=O)CCCCC1`, the T/C is 106 % of control (dose: 75.0 mg/kg/injection, schedule: Q01DX009 (ip), vehicle: other); 95 % of control (dose: 100.0 mg/kg/injection, schedule: Q04DX003 (ip), vehicle: saline sonified); 101 % of control (dose: 150.0 mg/kg/injection, schedule: Q01DX009 (ip), vehicle: other); 93 % of control (dose: 200.0 mg/kg/injection, schedule: Q04DX003 (ip), vehicle: saline sonified); 93 % of control (dose: 300.0 mg/kg/injection, schedule: Q01DX009 (ip), vehicle: other); 95 % of control (dose: 400.0 mg/kg/injection, schedule: Q04DX003 (ip), vehicle: saline sonified).

In the case of `C(=N\N=C\c1ccccc1)/c1ccccc1`, the T/C runs as follows: under setting [9], 97 % of control; (dose: 100.0 mg/kg/injection, schedule: Q04DX002 (ip), vehicle: Klucel (hydroxypropylcellulose) (HPC)) 98 % of control; under setting [11], 100 % of control; (dose: 200.0 mg/kg/injection, schedule: Q04DX002 (ip), vehicle: Klucel (hydroxypropylcellulose) (HPC)) 91 % of control; (dose: 400.0 mg/kg/injection, schedule: Q01DX009 (ip), vehicle: saline with Tween-80) 100 % of control; (dose: 400.0 mg/kg/injection, schedule: Q04DX002 (ip), vehicle: Klucel (hydroxypropylcellulose) (HPC)) 102 % of control.

Turning to `C[C@]12CCC(=O)C=C1CC[C@@H]1[C@@H]2[C@@H](O)C[C@@]2(C)[C@H]1CC[C@]2(O)C(=O)COC(=O)COCC(=O)O`, the T/C was 101 % of control (dose: 100.0 mg/kg/injection, schedule: Q04DX003 (sc), vehicle: Klucel (hydroxypropylcellulose) (HPC)); 102 % of control (dose: 200.0 mg/kg/injection, schedule: Q04DX003 (sc), vehicle: Klucel (hydroxypropylcellulose) (HPC)); 101 % of control (dose: 400.0 mg/kg/injection, schedule: Q04DX003 (sc), vehicle: Klucel (hydroxypropylcellulose) (HPC)).

As for `CCCCCCCNC(C)(C)C(SSSC(c1ccc(Cl)cc1)C(C)(C)NCCCCCCC)c1ccc(Cl)cc1` (stereo not given), the T/C is, setting by setting: under setting [12], 101 % of control; under setting [13], 101 % of control; under setting [14], 98 % of control.

On to `C=CCN(N=O)C(N)=O`, for which the T/C (dose: 12.5 mg/kg/injection, schedule: Q01DX Z (ip), vehicle: methylcellulose (MC)) was 106 % of control; the T/C (dose: 25.0 mg/kg/injection, schedule: Q01DX Z (ip), vehicle: methylcellulose (MC)) is 108 % of control; the T/C (dose: 50.0 mg/kg/injection, schedule: Q01DX Z (ip), vehicle: methylcellulose (MC)) is 117 % of control.

In the case of `Nc1nc(N)c(N=Nc2ccc(Cl)cc2)c(Cl)n1`, the T/C reads like this: under setting [4], 94 % of control; under setting [5], 97 % of control; under setting [6], 94 % of control.

As for `O=C1OC(=O)C2C3c4ccccc4C(c4ccccc43)C12` (stereo not given), the T/C (dose: 25.0 mg/kg/injection, schedule: Q01DX009 (ip), vehicle: saline) was 103 % of control; the T/C (dose: 50.0 mg/kg/injection, schedule: Q01DX009 (ip), vehicle: saline) is 98 % of control; the T/C (dose: 50.0 mg/kg/injection, schedule: Q04DX003 (ip), vehicle: saline) is 96 % of control; the T/C under setting [8] was 98 % of control; the T/C (dose: 100.0 mg/kg/injection, schedule: Q01DX009 (ip), vehicle: saline) is 114 % of control; the T/C under setting [12] was 103 % of control. In addition, the T/C (dose: 100.0 mg/kg/injection, schedule: Q04DX003 (ip), vehicle: saline) was 98 % of control; the T/C under setting [10] was 88 % of control; the T/C under setting [13] is 90 % of control.

Regarding `CNC(=O)C(c1ccccc1)C(O)c1ccccc1` (stereo not given), the T/C (dose: 50.0 mg/kg/injection, schedule: Q01DX001 (ip), vehicle: saline) was 103 % of control; the T/C under setting [8] was 101 % of control; the T/C under setting [10] is 103 % of control.

Take `C/C(=N\O)c1ccc(OCC(O)CN2CCN(c3ccccc3)CC2)cc1` (stereo not given): the T/C is 101 % of control (dose: 37.5 mg/kg/injection, schedule: Q04DX003 (ip), vehicle: saline with Tween-80); 103 % of control under setting [7]; 93 % of control (dose: 75.0 mg/kg/injection, schedule: Q04DX003 (ip), vehicle: saline with Tween-80); 108 % of control under setting [9]; 101 % of control (dose: 150.0 mg/kg/injection, schedule: Q04DX003 (ip), vehicle: saline with Tween-80); 115 % of control under setting [11].

Consider `Oc1ccccc1OCc1ccccc1`, for which the T/C (dose: 50.0 mg/kg/injection, schedule: Q04DX003 (ip), vehicle: Klucel (hydroxypropylcellulose) (HPC)) was 92 % of control; the T/C (dose: 100.0 mg/kg/injection, schedule: Q01DX009 (ip), vehicle: Klucel (hydroxypropylcellulose) (HPC)) was 101 % of control; the T/C under setting [12] is 94 % of control; the T/C (dose: 200.0 mg/kg/injection, schedule: Q01DX009 (ip), vehicle: Klucel (hydroxypropylcellulose) (HPC)) is 97 % of control; the T/C under setting [13] was 92 % of control; the T/C (dose: 400.0 mg/kg/injection, schedule: Q01DX009 (ip), vehicle: Klucel (hydroxypropylcellulose) (HPC)) was 102 % of control. Further, the T/C under setting [14] was 100 % of control.

The record behind these values is PubChem BioAssay AID248 (DTP/NCI, 2004).
